# How the values were obtained:
# [1] = molecular target: T1, Arginase-2, mitochondrial (Homo sapiens, UniProt P78540); experiment: Inhibition of human arginase-2 assessed as L-arginine conversion to L-ornithine measured as urea level after 1 hr by colorimetric assay
# T1 sequence (P78540 whole entry): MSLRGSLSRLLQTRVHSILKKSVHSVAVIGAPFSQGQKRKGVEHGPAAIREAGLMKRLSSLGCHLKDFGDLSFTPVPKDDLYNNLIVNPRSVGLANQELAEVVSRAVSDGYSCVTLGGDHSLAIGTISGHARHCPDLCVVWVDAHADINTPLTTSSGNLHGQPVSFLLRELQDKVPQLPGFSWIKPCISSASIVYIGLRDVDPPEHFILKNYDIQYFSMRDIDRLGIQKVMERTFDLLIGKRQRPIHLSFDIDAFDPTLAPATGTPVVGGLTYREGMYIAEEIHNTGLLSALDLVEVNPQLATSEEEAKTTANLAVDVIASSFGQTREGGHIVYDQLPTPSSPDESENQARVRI
# [2] = molecular target: T2, Arginase-1 (Homo sapiens, UniProt P05089); experiment: Inhibition of human arginase-1 assessed as L-arginine conversion to L-ornithine measured as urea level after 1 hr by colorimetric assay
# T2 sequence (P05089 whole entry): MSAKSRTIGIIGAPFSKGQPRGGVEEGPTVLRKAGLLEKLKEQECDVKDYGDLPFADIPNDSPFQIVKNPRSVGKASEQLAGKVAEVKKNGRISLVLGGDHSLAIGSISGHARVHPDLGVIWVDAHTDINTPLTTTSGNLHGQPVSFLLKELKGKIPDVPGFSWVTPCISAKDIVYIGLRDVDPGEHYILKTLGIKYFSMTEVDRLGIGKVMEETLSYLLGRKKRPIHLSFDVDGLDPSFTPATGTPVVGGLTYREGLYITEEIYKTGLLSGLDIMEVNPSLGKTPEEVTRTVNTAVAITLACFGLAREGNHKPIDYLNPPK
# [3] = Octanol-phosphate buffer partition coefficient, log D of the compound by shake-flask method; assay type: physicochemical
# [4] = Bioavailability in ip dosed rat; assay type: ADME, organism-based; conditions: in vivo
# [5] = Half life in iv dosed rat; assay type: ADME, organism-based; conditions: in vivo
# [6] = test system: Plasma; experiment: Initial plasma concentration in rat; assay type: ADME
# [7] = Mean residence time in rat; assay type: ADME, organism-based; conditions: in vivo
# [8] = Clearance in iv dosed rat; assay type: ADME, organism-based; conditions: in vivo
# [9] = Volume of distribution at steady state in iv dosed rat; assay type: ADME, organism-based; conditions: in vivo, read-out: Vdss
# [10] = Oral bioavailability in rat; assay type: ADME, organism-based; conditions: in vivo
# [11] = test system: Rattus norvegicus; experiment: AUC (0 to t) in iv dosed rat; assay type: ADME, organism-based, Plasma; conditions: in vivo
# [12] = test system: Rattus norvegicus; experiment: AUC (0 to infinity) in iv dosed rat; assay type: ADME, organism-based, Plasma; parameters: route intravenous, time infinity; conditions: in vivo
IC50 [1] [nM],IC50 [2] [nM],logD [3],bioavailability [4] [%],SMILES,half-life [5] [h],C0 [6] [ng/mL],MRT [7] [h],clearance [8] [mL/min/kg],Vd [9] [L/kg],bioavailability [10] [%],AUCt [11] [kg·h/L],AUC [12] [kg·h/L]
1100,720,0.5,< 5,NC(CCCCB(O)O)(C(=O)O)C1CCN(C(=O)Nc2ccc(Cl)cc2)CC1 (racemic),–,–,–,–,–,–,–,–
1120,330,–,< 5,NC(CCCCB(O)O)(C(=O)O)C1CCN(C(=S)NCc2ccc(Cl)cc2)CC1 (racemic),–,–,–,–,–,–,–,–
230,200,-0.4,< 5,NC(CCCCB(O)O)(C(=O)O)C1CCN(Cc2ccccc2)CC1 (racemic),–,–,–,–,–,–,–,–
240,190,0.3,< 5,NC(CCCCB(O)O)(C(=O)O)C1CCN(Cc2ccc(Cl)cc2)CC1 (racemic),–,–,–,–,–,–,–,–
290,200,1.5,> 50,NC(CCCCB(O)O)(C(=O)O)C1CCN(Cc2ccc(Cl)c(Cl)c2)CC1 (racemic),7.83,4720,2.14,7.87,1.51,4.8,2.05,2.12
4650,6650,–,< 5,Cc1ccc(S(=O)(=O)N2CCC(C(N)(CCCCB(O)O)C(=O)O)CC2)cc1 (racemic),–,–,–,–,–,–,–,–

# The next lines start with the molecule.
SMILES,IC50 [1] [nM],IC50 [2] [nM],logD [3],bioavailability [4] [%],half-life [5] [h],C0 [6] [ng/mL],MRT [7] [h],clearance [8] [mL/min/kg],Vd [9] [L/kg],bioavailability [10] [%],AUCt [11] [kg·h/L],AUC [12] [kg·h/L]
N[C@@H](CCCCB(O)O)C(=O)O,2150,1470,–,–,–,–,–,–,–,–,–,–
NC(CCCCB(O)O)(C(=O)O)C1CC2CCC(C1)N2 (racemic),85,80,–,< 5,–,–,–,–,–,–,–,–
NC(CCCCB(O)O)(C(=O)O)C1CC2CCC(C1)N2Cc1ccccc1 (racemic),47,24,–,< 5,–,–,–,–,–,–,–,–
NC(CCCCB(O)O)(C(=O)O)C1CC2CCC(C1)N2Cc1ccc(Cl)cc1 (racemic),30,17,–,< 5,–,–,–,–,–,–,–,–
NC(CCCCB(O)O)(C(=O)O)C1CC2CCC(C1)N2Cc1ccc(Cl)c(Cl)c1 (racemic),23,21,2.4,> 50,3.12,4770,0.912,16.8,0.918,0.25,0.951,0.994
NC(CCCCB(O)O)(C(=O)O)C1CC2CCC(C1)N2Cc1ccc(F)c(F)c1 (racemic),33,22,–,< 5,–,–,–,–,–,–,–,–
NC(CCCCB(O)O)(C(=O)O)C1CCNCC1 (racemic),640,380,-2.8,< 5,–,–,–,–,–,–,–,–
CC(C)CCN1CCC(C(N)(CCCCB(O)O)C(=O)O)CC1 (racemic),230,180,-1.1,< 5,–,–,–,–,–,–,–,–
NC(CCCCB(O)O)(C(=O)O)C1CCN(CCc2ccc(Cl)cc2Cl)CC1 (racemic),330,210,–,< 5,–,–,–,–,–,–,–,–
NC(CCCCB(O)O)(C(=O)O)C1CCN(CCCc2ccc(Cl)cc2Cl)CC1 (racemic),50,100,1.2,< 5,–,–,–,–,–,–,–,–
NC(CCCCB(O)O)(C(=O)O)C1CCN(CCCc2ccc(C(F)(F)F)cc2)CC1 (racemic),70,120,–,< 5,–,–,–,–,–,–,–,–
